Results reported in US6989138B2, “Stabilization of radiopharmaceutical compositions using hydrophilic thioethers and hydrophilic 6-hydroxy chromans” (Diatide, Inc., priority 2000, dated 2006).

Assay: Radiochemical purity (RCP) of 99mTc-depreotide kits with gentisic acid, reversed phase HPLC
Assay type: physicochemical
Details: when included in formulated kits
Protocol: Lyophilized kit vials were prepared containing depreotide, GA, and other components as described in Table 1. Formulations were adjusted to pH 7.4 or 8.5 (as noted) prior to lyophilization.

Q: With O=C(O)c1cc(O)ccc1O [gentisic acid, Gentisic acid] as the compound, how does the “effect on radiolabelling yield and stability of 99mTc-depreotide” value read?
A: decreases the radiolabelling yield and the stability
